The source made the active and inactive calls.
Assays:
[1] = StAR promoter reporter inhibition counter-screen, dose response, counter-screen for LRH-1 inverse agonist project, cell-based, luminescence, luciferase reporter (AID 651969); type: functional
[2] = molecular target: Nuclear receptor subfamily 5 group A member 2 (Homo sapiens, UniProt O00482); type: functional, cell-based;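 also: HEK293T cells transfected with LRH-1 and a StAR promoter luciferase reporter; potency for inhibitors that lower LRH-1 driven reporter light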
Chain of Nuclear receptor subfamily 5 group A member 2 (O00482 whole entry): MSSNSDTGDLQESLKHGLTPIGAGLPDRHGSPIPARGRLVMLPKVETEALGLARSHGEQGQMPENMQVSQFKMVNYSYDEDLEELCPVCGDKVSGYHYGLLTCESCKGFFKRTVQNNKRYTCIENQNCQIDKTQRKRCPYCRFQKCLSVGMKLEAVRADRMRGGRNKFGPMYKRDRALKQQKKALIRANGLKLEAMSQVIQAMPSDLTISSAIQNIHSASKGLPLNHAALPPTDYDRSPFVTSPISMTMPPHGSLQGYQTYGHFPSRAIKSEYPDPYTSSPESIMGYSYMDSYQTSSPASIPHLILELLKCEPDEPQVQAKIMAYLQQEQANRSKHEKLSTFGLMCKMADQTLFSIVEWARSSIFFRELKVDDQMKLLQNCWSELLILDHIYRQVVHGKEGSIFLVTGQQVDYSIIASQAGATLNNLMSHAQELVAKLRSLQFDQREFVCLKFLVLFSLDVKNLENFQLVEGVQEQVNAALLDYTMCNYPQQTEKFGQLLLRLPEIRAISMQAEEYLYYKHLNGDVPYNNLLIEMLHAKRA

Steroidogenic factor 1 = Steroidogenic factor 1 (Homo sapiens, UniProt Q13285); experiment: Counterscreen for inverse agonists of the liver receptor homolog-1 (LRH-1; NR5A2): Luminescence-based cell-based high throughput dose response assay to identify inverse agonists of the Steroidogenic Factor 1 Nuclear Receptor (SF1; NR5A1).; type: functional
Chain of Steroidogenic factor 1 (Q13285 whole entry, the tested form may be a part): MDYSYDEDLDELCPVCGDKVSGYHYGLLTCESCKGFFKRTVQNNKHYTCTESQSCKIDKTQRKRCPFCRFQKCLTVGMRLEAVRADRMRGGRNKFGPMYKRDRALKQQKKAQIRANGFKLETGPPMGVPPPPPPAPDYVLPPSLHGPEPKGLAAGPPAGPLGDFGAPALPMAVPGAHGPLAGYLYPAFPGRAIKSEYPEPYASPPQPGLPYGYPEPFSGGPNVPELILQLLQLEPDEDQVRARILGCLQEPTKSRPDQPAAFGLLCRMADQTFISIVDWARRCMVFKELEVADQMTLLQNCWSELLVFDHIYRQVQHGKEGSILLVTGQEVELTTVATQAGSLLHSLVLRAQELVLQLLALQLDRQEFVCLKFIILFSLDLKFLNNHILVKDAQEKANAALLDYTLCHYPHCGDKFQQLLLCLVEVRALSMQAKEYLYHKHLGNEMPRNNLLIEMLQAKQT

[3] = molecular target: Hepatocyte nuclear factor 4-alpha (Homo sapiens, UniProt P41235); type: functional, cell-based;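 also: biochemical luminescence-based dose-response counterscreen measuring inhibition of HNF4 dimerization, run alongside a screen for blockers of ABHD5–perilipin-5 interaction; split luciferase complementation of HNF4 fusion proteins in cell lysate measuring dimerization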
Chain of Hepatocyte nuclear factor 4-alpha (P41235 whole entry, the tested form may be a part): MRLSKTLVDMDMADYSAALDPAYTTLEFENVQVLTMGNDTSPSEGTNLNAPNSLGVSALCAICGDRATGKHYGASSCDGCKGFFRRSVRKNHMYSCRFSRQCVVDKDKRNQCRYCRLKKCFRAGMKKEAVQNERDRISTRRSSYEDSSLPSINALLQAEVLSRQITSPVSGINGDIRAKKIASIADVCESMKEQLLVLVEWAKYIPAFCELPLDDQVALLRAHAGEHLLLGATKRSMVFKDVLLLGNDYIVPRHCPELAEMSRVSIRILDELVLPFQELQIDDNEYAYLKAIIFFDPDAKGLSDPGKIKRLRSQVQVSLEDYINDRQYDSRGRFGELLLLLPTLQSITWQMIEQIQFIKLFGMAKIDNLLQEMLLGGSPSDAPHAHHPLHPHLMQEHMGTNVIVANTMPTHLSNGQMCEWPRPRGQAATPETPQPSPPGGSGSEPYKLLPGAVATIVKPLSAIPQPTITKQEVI

[4] = molecular target: T1, Orexin/Hypocretin receptor type 1 (Homo sapiens, UniProt O43613); experiment: Homogeneous Time Resolved Fluorescence (HTRF)-based cell-based high throughput dose response assay for antagonists of the orexin 1 receptor (OX1R; HCRTR1). [Related pubchem assays (depositor defined):AID434989, AID435008, AID463079, AID485270, AID492963, AID492964, AID492965, AID493232, AID504717, AID504718]; type: functional
T1 sequence (O43613 whole entry): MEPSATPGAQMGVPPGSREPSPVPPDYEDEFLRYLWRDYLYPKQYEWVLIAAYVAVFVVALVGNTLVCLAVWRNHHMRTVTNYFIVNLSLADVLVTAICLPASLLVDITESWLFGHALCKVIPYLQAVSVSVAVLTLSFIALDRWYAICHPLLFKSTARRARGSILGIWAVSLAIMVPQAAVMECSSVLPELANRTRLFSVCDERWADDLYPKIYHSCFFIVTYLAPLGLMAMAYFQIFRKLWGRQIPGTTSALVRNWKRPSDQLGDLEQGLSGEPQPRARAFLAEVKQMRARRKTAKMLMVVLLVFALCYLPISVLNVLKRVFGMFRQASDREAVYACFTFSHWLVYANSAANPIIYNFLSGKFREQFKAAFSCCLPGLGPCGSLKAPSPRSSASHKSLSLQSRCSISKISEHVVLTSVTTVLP

[5] = (§1) Counterscreen for antagonists of the orexin 1 receptor (OX1R; HCRTR1): Fluorescence-based cell-based high throughput dose response assay to identify antagonists of the parental CHO cell line. [Related pubchem assays (depositor defined):AID434989, AID435008, AID463079, AID485270, AID492963, AID492964, AID492965, AID493232, AID504699, AID504701]; type: functional
Orexin receptor type 2 [6] = molecular target: T2, Orexin receptor type 2 (Homo sapiens, UniProt O43614); experiment: Counterscreen assay for antagonists of the orexin 1 receptor (OX1R; HCRTR1): Fluorescence-based cell-based dose response assay for antagonists of the orexin 2 receptor (OX2R; HCRTR2), run by assay provider.; type: functional
T2 sequence (O43614 whole entry): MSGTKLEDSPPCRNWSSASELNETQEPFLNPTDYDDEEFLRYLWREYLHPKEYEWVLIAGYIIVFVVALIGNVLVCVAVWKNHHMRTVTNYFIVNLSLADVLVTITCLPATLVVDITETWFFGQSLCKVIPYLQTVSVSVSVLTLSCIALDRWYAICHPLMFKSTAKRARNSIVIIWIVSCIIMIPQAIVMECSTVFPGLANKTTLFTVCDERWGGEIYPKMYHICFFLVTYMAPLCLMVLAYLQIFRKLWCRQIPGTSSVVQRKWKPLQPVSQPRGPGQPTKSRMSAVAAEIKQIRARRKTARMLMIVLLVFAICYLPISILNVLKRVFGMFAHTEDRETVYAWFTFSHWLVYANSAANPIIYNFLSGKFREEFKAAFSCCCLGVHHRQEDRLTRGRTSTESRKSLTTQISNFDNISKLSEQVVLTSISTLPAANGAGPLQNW

Orexin receptor type 2 [7] = molecular target: T2, Orexin receptor type 2; experiment: Counterscreen assay for antagonists of the orexin 1 receptor (OX1R; HCRTR1): Homogeneous Time Resolved Fluorescence (HTRF)-based cell-based dose response assay for antagonists of the orexin 2 receptor (OX2R; HCRTR2), run by assay provider.; type: functional
[8] = molecular target: T1, Orexin/Hypocretin receptor type 1; experiment: Fluorescence-based cell-based high throughput dose response assay for antagonists of the orexin 1 receptor (OX1R; HCRTR1). [Related pubchem assays (depositor defined):AID434989, AID435008, AID463079, AID485270, AID492963, AID492964, AID492965, AID493232, AID504717, AID504718]; type: functional
CHO-K1 = experiment: as §1, with “Homogeneous time resolved fluorescence (HTRF)-based” for “Fluorescence-based”, “cell-based” for “cell-based high throughput”, “CHO-K1” for “CHO”; type: functional; conditions: Cricetulus griseus;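 also: potency for inhibition of ATP-stimulated IP1 production as antagonists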
Caspase-3 = molecular target: T3, Caspase-3 (Homo sapiens, UniProt P42574); experiment: Dose-response confirmation of uHTS inhibitor hits of Sentrin-Specific Protease 8 in a Caspase-3 Fluorescence assay.; type: functional
T3 sequence (P42574 whole entry): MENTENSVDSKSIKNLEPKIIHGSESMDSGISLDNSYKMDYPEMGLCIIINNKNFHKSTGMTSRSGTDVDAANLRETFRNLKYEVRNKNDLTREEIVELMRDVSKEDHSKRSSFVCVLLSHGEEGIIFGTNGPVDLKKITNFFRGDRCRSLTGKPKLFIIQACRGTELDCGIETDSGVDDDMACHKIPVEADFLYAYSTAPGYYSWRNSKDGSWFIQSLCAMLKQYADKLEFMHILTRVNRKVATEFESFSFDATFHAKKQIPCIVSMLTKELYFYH

[9] = molecular target: T4, Sentrin-specific protease 8 (Homo sapiens, UniProt Q96LD8); type: functional
T4 sequence (Q96LD8 whole entry): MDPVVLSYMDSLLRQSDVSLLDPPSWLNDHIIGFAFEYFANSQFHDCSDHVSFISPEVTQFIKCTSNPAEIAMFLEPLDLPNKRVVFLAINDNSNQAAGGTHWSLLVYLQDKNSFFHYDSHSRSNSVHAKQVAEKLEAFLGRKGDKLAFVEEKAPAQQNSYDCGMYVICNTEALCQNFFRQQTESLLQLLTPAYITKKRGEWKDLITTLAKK

[10] = molecular target: T4, Sentrin-specific protease 8; type: functional; remark: listed apart in the source
Melanocortin receptor 4 = Melanocortin receptor 4 (Homo sapiens, UniProt P32245); type: functional, cell-based;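 also: Cell-based assay with luminescence read-out, confirmatory dose-response testing for agonist activity of biased ligands at MC4R; human U2OS cells with tagged receptor and beta-arrestin; potency of agonists that increase receptor coupling to beta-arrestin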
Chain of Melanocortin receptor 4 (P32245 whole entry): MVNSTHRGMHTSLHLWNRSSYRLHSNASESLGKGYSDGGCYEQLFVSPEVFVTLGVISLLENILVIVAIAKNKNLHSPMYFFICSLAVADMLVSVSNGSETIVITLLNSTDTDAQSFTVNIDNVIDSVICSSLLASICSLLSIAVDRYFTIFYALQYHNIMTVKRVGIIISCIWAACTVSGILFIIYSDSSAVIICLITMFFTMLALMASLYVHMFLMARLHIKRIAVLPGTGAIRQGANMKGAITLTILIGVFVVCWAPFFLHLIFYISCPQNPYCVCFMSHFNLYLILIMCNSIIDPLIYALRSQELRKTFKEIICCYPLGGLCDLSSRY

[11] = molecular target: T5, Calpain-2 catalytic subunit (Sus scrofa, UniProt P43367); experiment: pig calpain II inhibitor potency, dose response, biochemical, fluorogenic peptide substrate (AID 1420); type: functional
T5 sequence (P43367 whole entry): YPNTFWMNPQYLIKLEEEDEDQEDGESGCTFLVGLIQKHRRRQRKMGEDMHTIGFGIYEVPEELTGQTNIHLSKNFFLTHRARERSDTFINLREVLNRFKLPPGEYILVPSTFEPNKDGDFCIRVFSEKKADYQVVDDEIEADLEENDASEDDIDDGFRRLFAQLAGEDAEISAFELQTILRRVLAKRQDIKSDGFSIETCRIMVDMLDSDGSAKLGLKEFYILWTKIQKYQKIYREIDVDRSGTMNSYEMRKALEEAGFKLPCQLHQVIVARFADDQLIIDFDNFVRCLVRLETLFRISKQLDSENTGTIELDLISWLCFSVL

[12] = molecular target: T6, Heat shock factor protein 1 (Mus musculus, UniProt P38532); experiment: HSF1 potentiators in luciferase reporter cells, confirmation, cell-based, NIH3T3, luminescence, dose retest (AID 435004); type: functional;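 also: stress induced by proteasome inhibitor MG132 added 30 min after compound; luciferase reporter driven by HSF1 response element in NIH3T3 cells; actives raise luminescence as potentiators of the MG132 stress response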
T6 sequence (P38532 whole entry): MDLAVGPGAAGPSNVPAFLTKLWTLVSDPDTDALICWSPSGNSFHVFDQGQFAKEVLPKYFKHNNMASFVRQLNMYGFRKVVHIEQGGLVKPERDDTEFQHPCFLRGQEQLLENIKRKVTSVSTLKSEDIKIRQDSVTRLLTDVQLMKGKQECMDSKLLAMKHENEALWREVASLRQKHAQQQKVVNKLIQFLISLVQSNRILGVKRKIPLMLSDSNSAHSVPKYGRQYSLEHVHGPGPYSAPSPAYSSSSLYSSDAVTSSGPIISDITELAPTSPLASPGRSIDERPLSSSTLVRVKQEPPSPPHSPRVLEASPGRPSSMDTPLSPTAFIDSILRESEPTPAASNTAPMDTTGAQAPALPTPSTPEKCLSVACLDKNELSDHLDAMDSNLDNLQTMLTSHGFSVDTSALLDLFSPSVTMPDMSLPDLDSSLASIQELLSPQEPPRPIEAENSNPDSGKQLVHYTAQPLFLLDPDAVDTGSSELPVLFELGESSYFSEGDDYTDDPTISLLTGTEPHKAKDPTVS

SMILES: O=C(CN1C(=O)NC2(CCCC2)C1=O)NCCc1ccc(F)cc1
- IC50 [1]: 35.9 µM (inactive)
- IC50 [2]: 35.9 µM (inactive)
- IC50 (Steroidogenic factor 1): 6.2 µM (active)

SMILES: COc1ccc(/C=N/NC(=O)c2ccc(NC(=O)c3cccc([N+](=O)[O-])c3)cc2)c(OC)c1
- IC50 [1]: 35.9 µM (inactive)
- IC50 [2]: 23.1 µM (inactive)
- IC50 (Steroidogenic factor 1): 3.07 µM (active)

SMILES: O=C(Cn1c(=O)n(Cc2ccco2)c(=O)c2c3c(sc21)CCCC3)Nc1ccccc1
- IC50 [3]: 22.2 µM (inactive)

SMILES: Cc1cc(Br)cc2c1NC(=O)C2(c1c(C)n(C)n(-c2ccccc2)c1=O)c1c(C)n(C)n(-c2ccccc2)c1=O
- IC50 [4]: 1.28 µM (active)
- IC50 [5]: > 49.8 µM (inactive)
- IC50 (Orexin receptor type 2 [6]): > 88.8 µM (inactive)
- IC50 (Orexin receptor type 2 [7]): 0.99 µM (active)
- IC50 [8]: 6.52 µM (active)
- IC50 (CHO-K1): > 66.2 µM (inactive)

SMILES: O=C(Cc1ccccc1)c1nc2ccccc2s1
- IC50 (Caspase-3): 25 µM (active)
- IC50 [9]: 26.7 µM (active)
- IC50 [10]: 6.06 µM (active)

SMILES: Cn1c(N)c(C(=O)N/N=C/c2ccccc2)sc1=S
- IC50 [4]: 1.59 µM (active)
- IC50 [5]: > 49.7 µM (inactive)
- IC50 (Orexin receptor type 2 [6]): > 88.8 µM (inactive)
- IC50 (Orexin receptor type 2 [7]): > 50 µM (inactive)
- IC50 [8]: 2.75 µM (active)
- IC50 (CHO-K1): > 66.2 µM (inactive)

SMILES: COc1cc(NS(=O)(=O)c2ccc(NC(=S)NC(=O)c3sc4ccccc4c3Cl)cc2)ncn1
- EC50 (Melanocortin receptor 4): > 89.2 µM (inactive)
- IC50 [11]: 11.4 µM (not active)

SMILES: CC(=O)Cc1cc(O)c2ccccc2c1OC(=O)c1ccccc1
- EC50 [12]: > 260 µM (inactive)
- IC50 [3]: 14.6 µM (inactive)

Source: ChEMBL document CHEMBL1201862, “PubChem BioAssay data set” (2004)
